Laboratory results from US12486218B2, “Compounds advantageous in the treatment of central nervous system diseases and disorders” (AurimMed Pharma, Inc., priority 2008, dated 2025).
Each block holds one compound with its values, some of them ahead of it.

What was measured:
SMN2 promoter = SMN2 promoter β-lactamase reporter assay in NSC34 motor neuron-like cells; format: cell-based; conditions: for Promoter (SMN2 promoter test, summary YES/NO): Table 13 summary; for SMN2 promoter activity: treatment for 19 hours at a concentration of 1 μM
Method: FIG. 30 illustrates a screen for SMN2 expression of a number of compounds described herein.
SMN2 promoter activity was measured using NSC34 motor neuron-like cells stably transfected with a β-lactamase (BLA) reporter gene under the control of a 3.4-kilobase fragment of the SMN2 promoter. D156844 was used as a positive control for this assay.

[1] = tested on: rat dopaminergic N27 cells; experiment: N27 protection assay against oxidative stress (H2O2 or MPP+; MTT and LDH); format: cell-based; conditions: drug 24 hours before 200 μM H2O2 or 640 μM MPP+
Excerpt: FIGS. 20A-25D data are shown illustrating neuroprotective and neuroregenerative effects observed in rat dopaminergic N27 cells. Rat dopaminergic N27 cells are commonly used in in vitro and in vivo model systems for studying Parkinson's disease. Parkinson's disease is a neurodegenerative disorder of the central nervous system that affects more than 6 million people worldwide. The motor symptoms of Parkinson's disease result from the death of dopamine generating cells in the substantia nigra, a region of the midbrain.
The N27 rat dopaminergic neuron cell line was harvested from E12 rat mesencephalic tissue and was transfected with SV40 to immortalize the cell line. The N27 cell line, when injected into the striata of 6-hydroxydopamine-lesioned rats (an animal model of PD) caused a time-dependent improvement in neurological deficits. This immortalized cell line has been carefully characterized in studies of dopamine biosynthesis, neurotoxicity and used as a dopaminergic neuron model studies.
The N27 in vitro Parkinson's disease model included a test of cell viability and cell toxicity in response to exposure to oxidative stress (e.g., either 200 μM H2O2 or 640 μM MPP+).
Cell viability was tested using the MTT assay. The MTT assay is a colorimetric analysis based on the activities of mitochondrial NAD(P)H-dependent cellular oxidoreductase enzymes. These enzymes are capable of reducing the tetrazolium dye, MTT [3-(4,5-dimethylthiazol-2-yl)-2,5-diphenyltetrazolium] bromide, to an insoluble formazan (purple). […] More viable cells equal more accumulation of the insoluble formazan dye.
Cell toxicity was tested using the […] (LDH) assay. Cells that are stressed secrete LDH. In general, the more cells are stressed, the LDH they secrete into their media. The LDH assay is a reliable colorimetric assay to measure quantitatively the […] (LDH) that is released into the cell culture media from damaged cells as a biomarker for cytotoxicity and cytolysis.
FIGS. 20A-25D present data from two types of assays: protection and recovery assays. In the protection assays, the drug candidate was applied to the cells at various concentrations for 24 hours, followed by the exposure to oxidative stress (either 200 μM H2O2 or 640 μM MPP+) for measuring neuroprotective effect. H2O2 provides a broad measure of oxidative stress, while MPP+ gives a more specific oxidative stress to dopaminergic neurons.
The protection assay results are shown in panels A-C of FIGS. 20-25 In the recovery assays, the cells were first damaged by exposure to H2O2 and then various concentrations of the drug were applied to the cells. The results for the recovery assays are shown the D panels of FIGS. 20-25.

rats = experiment: Pilocarpine-induced Status Epilepticus in Rats (prevention; intervention @ 30 min)
mice [2] = experiment: Minimal motor impairment (MID50), mice i.p.; conditions: mice i.p.
mice [3] = experiment: Subcutaneous Metrazol Seizure threshold (s.c. MET) test, mice i.p.; format: in vivo; conditions: for s.c. MET, fraction of animals: mice i.p.; for activity in the s.c. MET test: mice, at 300 mg/kg
mice [4] = experiment: Maximal Electroshock Seizure (MES) test, mice i.p.; format: in vivo; conditions: for MES, fraction of animals: mice i.p.; for activity in the MES test: mice
[5] = tested on: inclusion of exon 7 in SMN2 mRNAs; experiment: Exon 7 inclusion BLA reporter assay in NSC34 cell line; format: cell-based
Excerpt: To measure changes in the inclusion of exon 7 in SMN2 mRNAs, another NSC34 cell line was used that stably transfected with a reporter construct which expresses BLA when exon 7 is included in the SMN2 minigene mRNAs. 5-(N-ethyl-N-isopropyl)-amiloride (EIPA) was used as a positive control for this assay. Data for tis assay is illustrated in FIG. 30.

mice [6] = experiment: 6 Hz (minimal clonic seizure) model, mice i.p.; format: in vivo; conditions: for 6 Hz (32 mA), fraction of animals: mice i.p.
[7] = NSC34 exon 7 BLA reporter cells
[8] = Rattus norvegicus, read-out: Prevention, Protection

Compound: Cc1nc(C)c(C(C)CC(N)=O)cc1C(C)CC(N)=O (mixture of isomers) [DA]
Promoter (SMN2 promoter test, summary YES/NO) (SMN2 promoter): YES
SMN2 promoter activity (SMN2 promoter): increased SMN2 promoter activity
neuroprotective effect against H2O2 and MPP+ oxidative stresses (MTT and LDH assays) [1]: statistically significant, dose-dependent neuroprotection

Compound: CC(CC(N)=O)c1ccc(S(C)(=O)=O)cc1 (racemic) [AV]
Prevention, Protection (rats; rats, pilocarpine-induced status epilepticus, dose 600 mg/kg): 25%
neuroprotective effect against H2O2 and MPP+ oxidative stresses (MTT and LDH assays) [1]: statistically significant, dose-dependent neuroprotection

MID50, fraction of animals (mice [2]; 100 mg/kg @ 0.5 hr): 1/8 @ 0.50 hr,
MID50, fraction of animals (mice [2]; 300 mg/kg @ 0.5 hr): 4/4 @ 0.5
MID50, fraction of animals (mice [2]; 300 mg/kg @ 4.0 hr): hr & 2/2
Compound: CC(O)(CC(N)=O)c1cccc(OC(F)(F)F)c1 (racemic) [CD]
s.c. MET, fraction of animals (mice [3]; 30 mg/kg @ 0.5 hr): 3/5@ 0.50
s.c. MET, fraction of animals (mice [3]; 100 mg/kg @ 0.5 hr): 1/1 @ 0.5,
s.c. MET, fraction of animals (mice [3]; 100 mg/kg @ 4.0 hr): 1/1 @ 0.5,

MID50, fraction of animals (mice [2]; 100 mg/kg @ 0.5 hr): 3/8 @ 0.5 hr,
Compound: CC(O)(CC(N)=O)c1cccc(C(F)(F)F)c1 (racemic) [CE]
MES, fraction of animals (mice [4]; 30 mg/kg @ 0.50 hr): 1/1 @
s.c. MET, fraction of animals (mice [3]; 30 mg/kg @ 0.5 hr): 1/5 @ 0.5 hr,
s.c. MET, fraction of animals (mice [3]; 100 mg/kg @ 0.5 hr): 1/1 @ 0.5 hr,

Compound: NC(=O)CC1(c2ccc(Cl)cc2)CCCC1 [AJ]
Promoter (SMN2 promoter test, summary YES/NO) (SMN2 promoter): YES
SMN2 promoter activity (SMN2 promoter): increased SMN2 promoter activity
MES, fraction of animals (mice [4]; 100 mg/kg @ 0.25 hr): 3/3
MES, fraction of animals (mice [4]; 100 mg/kg @ 1.0 hr): 1/3
effect on the inclusion of exon 7 in SMN2 transcripts [5, 7]: positive effect on the inclusion of exon 7
exon 7 test, particularly strong hits [5, 7]: Particularly strong hits
Exon 7 inclusion (summary YES/NO) ([5]; Table 13 summary): YES
s.c. MET, fraction of animals (mice [3]; 300 mg/kg @ 0.5 hrs): 1/1 @ 0.5 hrs,

Compound: COc1ccc(C(CC(N)=O)C2CC2)cc1C (centres unmarked) [AN, 3-Cyclopropyl-3-(4-methoxy-3-methyl-phenyl)propionamide]
Promoter (SMN2 promoter test, summary YES/NO) (SMN2 promoter): YES
SMN2 promoter activity (SMN2 promoter): increased SMN2 promoter activity
MES, fraction of animals (mice [4]; 100 mg/kg @ 0.25 hr): 1/3 @
activity in the MES test (mice [4]; at 100 mg/kg): activity
effect on the inclusion of exon 7 in SMN2 transcripts [5, 7]: positive effect on the inclusion of exon 7
6 Hz (32 mA), fraction of animals (mice [6]; 100 mg/kg @ 0.25 hr): 4/4
6 Hz (32 mA), fraction of animals (mice [6]; 100 mg/kg @ 0.5 hr): 3/4
6 Hz (32 mA), fraction of animals (mice [6]; 100 mg/kg @ 1.0 hr): 1/4 @
activity in the 6 Hz (minimal clonic seizure) model (mice [6]; mice, at 100 mg/kg): activity

Compound: Cc1cc(C(CC(N)=O)C2CC2)ccc1F (centres unmarked) [AO, 3-Cyclopropyl-3-(4-fluoro-3-methylphenyl)-propionamide]
MES, fraction of animals (mice [4]; 100 mg/kg @ 0.5 hr): 1/3 @
activity in the MES test (mice [4]; at 100 mg/kg): activity
responders at 97 mg/kg (rats; Rattus norvegicus, 0.5 h, read-out: Intervention @ 30 min, Protection): 50%
responders at 65 mg/kg (rats; [8]): 86%
activity in the s.c. MET test (mice [3]): activity
neuroprotective effect against H2O2 and MPP+ oxidative stresses (MTT and LDH assays) [1]: statistically significant, dose-dependent neuroprotection

MID50, fraction of animals (mice [2]; 100 mg/kg @ 0.5 hr): 4/8 @ 0.5 hrs,
Compound: CC(CC(=O)N(C)C)c1ccc(OC(F)(F)F)cc1 (centres unmarked) [BD, N,N-Dimethyl-3-(4-trifluoromethoxy-phenyl)-butyramide]
MES, fraction of animals (mice [4]; 100 mg/kg @ 0.5 hr): 1/1 @
activity in the MES test (mice [4]; at 100 mg/kg): activity
6 Hz (32 mA), fraction of animals (mice [6]; 100 mg/kg @ 2.0 hr): 2/4 @ 0.5,
activity in the s.c. MET test (mice [3]): activity

Compound: CCNC(=O)CC(C)c1ccc(OC(F)(F)F)cc1 (centres unmarked) [BF, N-Ethyl-3-(4-trifluoromethoxy-phenyl)-butyramide]
activity in the MES test (mice [4]; at 300 mg/kg): activity
6 Hz (32 mA), fraction of animals (mice [6]; 100 mg/kg @ 0.25 hr): 3/4
6 Hz (32 mA), fraction of animals (mice [6]; 100 mg/kg @ 0.5 hr): 4/4
6 Hz (32 mA), fraction of animals (mice [6]; 100 mg/kg @ 1.0 hr): 2/4
6 Hz (32 mA), fraction of animals (mice [6]; 100 mg/kg @ 2.0 hr): 3/4
responders at 200 mg/kg (rats; [8]): 88%
activity in the s.c. MET test (mice [3]): activity
